Results taken from patent US6114127A, “Methods of screening for agonists and antagonists of the HDPXU17 receptor” (SmithKline Beecham Corporation, priority 1998, dated 2000).
pEC50: −log10 of the molar value. Entries after “also recorded” stand apart in the source; their conditions may differ.

Assays:
[1] = target: T1, HDPXU17 receptor (P2Y-like receptor) (Homo sapiens, UniProt Q96G91); test: Gs reporter gene luciferase assay, stable HDPXU17-expressing 293 cells (clone 20#) transiently transfected with MREIIVIPII plasmid; type: cell-based; conditions: for pEC50: luciferase activity, stable HDPXU17-expressing 293 cells (clone 20#) transiently transfected with MREIIVIPII plasmid
T1 construct: expressed in transfected cells; host or cells: HEK 293 cells stably expressing the MREIIVIPII luciferase reporter gene, transiently transfected with pCDN-HDPXU17 DNA (Lipofectamine)
T1 sequence (Q96G91 1-374): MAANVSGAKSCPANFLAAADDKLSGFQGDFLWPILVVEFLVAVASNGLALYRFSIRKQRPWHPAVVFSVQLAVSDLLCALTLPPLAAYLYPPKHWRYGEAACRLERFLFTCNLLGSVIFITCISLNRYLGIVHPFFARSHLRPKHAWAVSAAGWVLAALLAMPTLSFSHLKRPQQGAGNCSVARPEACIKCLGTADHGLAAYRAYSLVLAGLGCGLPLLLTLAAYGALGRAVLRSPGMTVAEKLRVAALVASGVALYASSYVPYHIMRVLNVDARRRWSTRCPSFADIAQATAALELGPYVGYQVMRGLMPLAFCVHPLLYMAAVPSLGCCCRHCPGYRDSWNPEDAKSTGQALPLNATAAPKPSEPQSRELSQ
Source text: (§1) The Gs reporter gene luciferase assay for orphan G-protein coupled receptors has been developed using a recombinant construct MREIVIPII plasmid, which has been disclosed European Patent Application No. 0 863 214, published on Sep. 9, 1998. This assay utilizes a luciferase gene fused to three copies of multiple response elements (MREs), one copy of cAMP response element (CRE) and the basal promoter of the vasointestinal peptide (VIP) gene to specifically monitor protein kinase A activation that results from an increase in intracellular cAMP. The system is not sensitive to activation of protein kinase C pathways. Rather, it responds to increases in cAMP mediated by endogenous and recombinant Gs-coupled GPCR activation with up to 120-fold increases in luciferase activity.
The assay begins when HEK 293 cells stably expressing the MREIIVIPII luciferase reporter gene were seeded at 4,500,000 per flask and incubated overnight at 37° C. The next day, solutions A (4 ug of pCDN-HDPXU17DNA was added to 0.8 ml EMEM without serum) and B (23.1 ul Lipofectamine was mixed in 0.8 ml EMEM without serum) were prepared, mixed together and incubated 30 min at room temperature. During the incubation, the culture medium was aspirated from cells and replaced with 12.5 ml serum-free EMEM. Next, the DNA and Lipofectamine mixture was added to the cells and incubated at 37° C. for 6 hours. After 6 hours, 13 ml of EMEM containing 10% FBS was added to the cells and incubated overnight at 37° C. The next day, the 96-well plates were pretreated with 1× Matrixgel solution at 50 ul/well for one hour. Then, the matrixgel solution and plate cells were aspirated at 2000-4000 cells/well. After overnight incubation at 37° C., 5-20 ul /well of the test compounds were added to the 96-well plates and incubated at 37° C. After 6 hours, the medium of each well was aspirated, 25 ul of 1×PBS without calcium and magnesium was added, the plates were frozen at -70° C. Then, the plates were allowed to thaw. Luc-lite solution (25 ul/well) was added and luciferase activity was measured by TopCount HTS. […]

[2] = target: T1, HDPXU17 receptor (P2Y-like receptor); test: Gs reporter gene luciferase assay, HEK 293 cells stably expressing the luciferase reporter, transfected with HDPXU17 DNA; type: cell-based; conditions: for luciferase activity: concentration ranges from 3-300,000 nM, HDPXU17-transfected HEK 293 reporter cells, result in words; for pEC50: luciferase activity, HEK 293 MREIIVIPII reporter cells transfected with HDPXU17, 3-300,000 nM
Source text: as §1
The assay begins when HEK 293 cells stably expressing the MREIIVIPII luciferase reporter gene were seeded at 4,500,000 per flask and incubated overnight at 37° C. The next day, solutions A (4 ug of pCDN-HDPXU17DNA was added to 0.8 ml EMEM without serum) and B (23.1 ul Lipofectamine was mixed in 0.8 ml EMEM without serum) were prepared, mixed together and incubated 30 min at room temperature. During the incubation, the culture medium was aspirated from cells and replaced with 12.5 ml serum-free EMEM. Next, the DNA and Lipofectamine mixture was added to the cells and incubated at 37° C. for 6 hours. After 6 hours, 13 ml of EMEM containing 10% FBS was added to the cells and incubated overnight at 37° C. The next day, the 96-well plates were pretreated with 1× Matrixgel solution at 50 ul/well for one hour. Then, the matrixgel solution and plate cells were aspirated at 2000-4000 cells/well. After overnight incubation at 37° C., 5-20 ul /well of the test compounds were added to the 96-well plates and incubated at 37° C. After 6 hours, the medium of each well was aspirated, 25 ul of 1×PBS without calcium and magnesium was added, the plates were frozen at -70° C. Then, the plates were allowed to thaw. Luc-lite solution (25 ul/well) was added and luciferase activity was measured by TopCount HTS.
In stable HDPXU17-expressing 293 cells(clone 20#) cells transiently transfected with MREIIVIPII plasmid, similar results are obtained.

Row | luciferase activity ([1]; stable HDPXU17-expressing 293 cells (clone 20#), result in words) | pEC50 [1] | pEC50 [2] | SMILES | luciferase activity [2] | best ligand for HDPXU 17 receptor ([2]; based on results in both transient and stable HDPXU17 cells)
1 | still weak, but specific | – | – | O=c1ccn([C@@H]2O[C@H](COP(=O)(O)OP(=O)(O)OP(=O)(O)O)[C@@H](O)[C@H]2O)c(=O)[nH]1 [UTP, uridine triphosphate] | increase luciferase activity only in cells transfected with the HDPXU17 receptor; also recorded: specific, but weak | –
2 | – | 3.70 | 3.98 | Nc1ncnc2c1ncn2[C@H]1C[C@H](O)[C@@H](COP(=O)(O)O)O1 [dAMP, deoxyadenosine monophosphate] | increase luciferase activity only in cells transfected with the HDPXU17 receptor | –
3 | – | 5.39 | 4.76 | Nc1ncnc2c1ncn2[C@H]1C[C@H](O)[C@@H](COP(=O)(O)OP(=O)(O)OP(=O)(O)O)O1 [dATP, deoxyadenosine triphosphate] | increase luciferase activity only in cells transfected with the HDPXU17 receptor | appears to be the best ligand for HDPXU 17 receptor
4 | – | – | – | Nc1ccn([C@H]2C[C@H](O)[C@@H](COP(=O)(O)OP(=O)(O)OP(=O)(O)O)O2)c(=O)n1 [dCTP] | no effect on luciferase activity | –
5 | – | – | – | Nc1nc2c(ncn2[C@H]2C[C@H](O)[C@@H](COP(=O)(O)OP(=O)(O)OP(=O)(O)O)O2)c(=O)[nH]1 [dGTP] | no effect on luciferase activity | –
6 | – | – | – | Cc1cn([C@H]2C[C@H](O)[C@@H](COP(=O)(O)OP(=O)(O)OP(=O)(O)O)O2)c(=O)[nH]c1=O [dTTP] | no effect on luciferase activity | –
